Patent US20210137930A1, “EXPANSION OF TUMOR INFILTRATING LYMPHOCYTES (TILS) WITH ADENOSINE A2A RECEPTOR ANTAGONISTS AND THERAPEUTIC COMBINATIONS OF TILS AND ADENOSINE A2A RECEPTOR ANTAGONISTS” (Iovance Biotherapeutics, Inc., priority 2018, published 2021)

Assays:
peripheral blood B cells = conditions: cynomolgus monkeys; doses from 0.001-100 mg/kg; two experiments; WO 2015/119923; cited from earlier work
melanoma TILs [1] = test: Flow cytometry of CD8+ and CD4+ subsets, melanoma TILs expanded with CPI-444; assay type: cell-based, human; conditions: melanoma TIL cultures treated with A2aR antagonist
From the text: (§1) After TIL harvesting, the TILs are phenotypically analyzed: (1) the total number of cells were counted with an automated cell counter; (2) Flow cytometry was used to determine the fraction of TILs that were CD4^+, CD8^+, within the subset of memory T-Cells, and to determine the presence/absence of A2aR and the expression level of A2aR.
(§2) FIG. 43 illustrates the results of flow cytometry analysis of CD8^+ and CD4^+ subsets for melanoma TILs obtained after the addition of the A2AR antagonist to pre-REP and REP cultures under various conditions. FIG. 44 and FIG. 45 illustrates flow cytometry analysis of CD8^+ and CD4^+ subsets for lung TILs (first and second lung tumor, respectively) obtained after the addition of CPI-444 to pre-REP and REP cultures under various conditions.

lung TILs = test: Flow cytometry of CD8+ and CD4+ subsets, lung TILs expanded with CPI-444; assay type: cell-based, human; conditions: lung TIL cultures
From the text: as §1, §2

melanoma TILs [2] = test: Cell counts of melanoma TILs expanded in pre-REP and REP with CPI-444; assay type: cell-based, human; conditions: pre-REP 11 days, melanoma tumor fragments pooled
Experimental: The expression of A2aR on TILs and the effect of an A2aR antagonist on TILs was evaluated by culturing melanoma tumor fragments or lung tumor fragments in both pre-REP and the REP phases either with or without the addition of CPI-444 (ciforadenant), an A2aR antagonist, which was obtained commercially from MedChemExpress, Inc., Monmouth Junction, N.J., USA. The experimental procedure is similar to that of Example 3 and Example 10, with the changes as described below.
Melanoma tumors and lung tumors were obtained from patients. The tumor samples were generally fragmented using sharp dissection into small pieces of about 3 mm×3 mm×3 mm. The TILs were cultured from these fragments using mechanical dissociation, using scalpel and forceps. Repeated cycles of mechanical dissociation and mixing were applied until only small tissue pieces are present. At the end of this process, the tumor fragments were placed into pre-REP culture. […]
as §1, with “A2aR. […]” for “A2aR.”

Row | Compound | peripheral blood B cell numbers (peripheral blood B cells) | CD8+ population (melanoma TILs [1]) | CD8+ population (lung TILs; at the 12 nM, 48 nM and 32 μM concentrations) | CD8+ TIL populations, response to 8 μM versus 32 μM (lung TILs; second tumor) | Cell Count at end or preREP Culture (Millions of Cells) (melanoma TILs [2]; IL-2 + 12 nM CPI-444/100,000 Cells) | Cell Count at end or preREP Culture (Millions of Cells) (melanoma TILs [2]; IL-2 + 48 nM CPI-444/100,000 Cells)
1 | PF-05082566: fully human immunoglobulin G2-lambda anti-4-1BB (CD137) agonist monoclonal antibody, Pfizer; SEQ ID NO:11 and 12 | either unchanged or decreased | – | – | – | – | –
2 | Cc1ccc(-c2nc(N)nc3c2nnn3Cc2cccc(CO[C@H]3CCOC3)n2)o1 [CPI-444, 7-(5-methylfuran-2-yl)-3-[[6-[[(3S)-oxolan-3-yl]oxymethyl]pyridin-2-yl]methyl]triazolo[4,5-d]pyrimidin-5-amine] | – | decrease | increase | modulated differently | 8.7 Millions of Cells | 12.8 Millions of Cells
